In patent US10647680B2, “Urea compound, preparation method therefor and medical use thereof” (Ancureall Pharmaceutical (Shanghai) Co., Ltd., priority 2016, dated 2020):

What was measured:
Assay type in all cases: in vitro ADME
CYP3A4-T = biological target: T1, CYP3A4-T (Homo sapiens, UniProt P08684); assay: P450 enzyme inhibition, CYP3A4-T (Testosterone); conditions: human liver microsomes
T1 construct: human liver microsomes (BD Gentest) (0.5 mg/mL); tissue BD Gentest; host or cells: human liver microsomes
T1 sequence (P08684 whole entry): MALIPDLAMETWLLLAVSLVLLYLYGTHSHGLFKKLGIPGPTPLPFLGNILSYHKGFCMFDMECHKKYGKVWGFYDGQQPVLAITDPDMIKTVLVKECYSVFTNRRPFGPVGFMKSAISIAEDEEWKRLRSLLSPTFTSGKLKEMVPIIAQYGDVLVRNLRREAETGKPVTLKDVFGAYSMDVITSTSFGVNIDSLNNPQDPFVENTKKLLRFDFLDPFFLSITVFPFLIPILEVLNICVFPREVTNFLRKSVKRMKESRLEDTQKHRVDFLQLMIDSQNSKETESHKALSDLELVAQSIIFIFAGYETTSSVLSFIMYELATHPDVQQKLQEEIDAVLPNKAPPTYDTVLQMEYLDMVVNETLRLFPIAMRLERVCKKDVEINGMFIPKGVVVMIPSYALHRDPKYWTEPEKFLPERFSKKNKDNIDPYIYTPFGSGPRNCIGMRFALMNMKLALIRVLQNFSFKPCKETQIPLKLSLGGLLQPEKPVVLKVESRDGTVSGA
Experimental: (§1) Eight cytochrome p450 enzyme inhibition reactions of human liver microsomes were performed using compound 77 of the present invention as a representative example.
(§2) The main reaction systems and processes: in 37° C. water bath, the test compounds (7 concentrations, 0, 0.25, 0.5, 5, 10, 25, and 50 uM; the final methanol concentration was 1% in the system), human liver microsomes (BD Gentest) (0.5 mg/mL) and reducing coenzyme II (Roche 10621706001) (1 mg/mL) and the corresponding cytochrome p450 enzyme probe substrate were co-incubated for 5 to 20 minutes. Among them, (1) the probe substrate for CYP1A2 was Phenacetin ([…]) (Sigma), and the selective inhibitor alpha-naphthoflavone (2 uM) (Sigma) was for parallel detection as positive control, and they were incubated for 20 minutes. (2) The probe substrate for CYP2b6 was Bupropion (40 uM) (Sigma) and the selective inhibitor Ticlopidine (10 uM) (Sigma) was for parallel detection as positive control, and they were incubated for 20 minutes. (3) The probe substrate of CYP2C8 was Amodiaquine (1 uM) (Sigma), and the selective inhibitor Montelukast (10 uM) (Sigma) was for parallel detection as positive control, and they were incubated for 20 minutes. (4) The probe substrate for CYP2C9 was Diclofenac (2.5 uM) (Sigma), and the selective inhibitor Sulphaphenazole (10 uM) (Sigma) was for parallel detection as positive control, and they were incubated for 20 minutes. (5) The probe substrate for CYP2C19 was Mephenytoin (40 uM) (Sigma), and the selective inhibitor Ticlopidine (10 uM) (Sigma) was for parallel detection as positive control, and they were incubated for 20 minutes. (6) The probe substrate for CYP2D6 was Dextromethorphan (5 uM) (Sigma), and the selective inhibitor Quinidine (10 uM) (Sigma) was for parallel detection as positive control, and they were incubated for 20 minutes. (7) The probe substrates for CYP3A4-T and CYP3A4-M were Testosterone (5 uM) (Sigma) and Midazolam (5 uM) (Sigma), respectively, and the selective inhibitor was Ketoconazole (1 uM) (Sigma), they were detected in parallel as positive control, and incubated for 5 minutes. The reaction system was quenched by adding methanol containing the corresponding internal standard. The internal standard compound was Tolbutamide (Sigma). The concentration of the corresponding metabolites was determined by LC/MS/MS. For the data analysis, the decrease in peak area of the metabolite of the sample after addition of compound 77 relative to the peak area of the metabolite of the solvent control sample was used to calculate the IC50 (concentration of the test substance at 50% inhibition). The percentages of peak areas of metabolites of CYP1A2, CYP2B6, CYP2C8, CYP2C9, 15CYP2C19, CYP2D6, CYP3A4-T, and CYP3A4-M probe substrates after addition of different concentrations of compound 77 and selective inhibitors relative to the solvent control peak areas were shown in the Table 7.

[1] = Metabolic stability in rat liver microsomes; conditions: rat liver microsome
Experimental: The experiment on the compound stability in rat liver microsomes was performed using compound 77 of the present invention as a representative example.
Procedure: The mixed reaction solution containing reducing coenzyme II (1 mg/ml, Roche 10621706001), rat liver microsomes (0.5 mg/ml, BD Gentest), phosphate buffer (0.1M) and ionized water was prepared according to a certain ratio, and then the reaction solution was placed in a 37° C. water bath and preheated for 2 minutes. A certain amount of compound 77 or reference substance was added to the prepared mixed reaction solution to start the reaction. In the final reaction system, the concentration of compound 77 or the positive control midazolam (National Institutes for Food and Drug Control) was 2 uM, and water was used instead of reducing coenzyme II as a negative control. […] The ratio of mean peak area of compound 77 to the mean peak area of internal standard at each time point was calculated, and the percentage of this ratio to that at time point 0 was calculated, and then change in this percentage was used to indicate the metabolic stability of the compound 77. […]

[2] = Stability in rat hepatocytes
Experimental: The stability experiment on rat hepatocytes was performed using compound 77 of the present invention as a representative example.
Procedure: The rat hepatocyte William's Medium E mixed reaction solution (2*10^6 cells/mL, 25 BD Gentest) was placed in a carbon dioxide incubator, and a certain volume of test substance or reference substance was added to the reaction system to initiate the reaction. In the final reaction system, the concentrations of the test substance or positive control testosterone were both 1 uM. Samples were taken at 0, 5, 15, 30, 45, 60, and 120 min after the reaction to a new centrifuge tube (3 portions in parallel at each time point), and 3-fold volume of ice methanol solution containing internal standard was added immediately to terminate the reactions, then after centrifugation for 5 min at 15,000 rpm to precipitate the protein, 100 μL of the supernatant was fetched to an autosampler vial for LC-MS/MS analysis (Waters Corp. ACQUITY UPLC, USA Applied Biosystems Inc. mass spectrometer API 400). The ratio of mean peak area of compound 77 to the mean peak area of internal standard at each time point was calculated, and the percentage of this ratio to that at time point 0 was calculated, and then change in this percentage was used to indicate the metabolic stability of the compound 77. […]

CYP3A4-M = biological target: T2, CYP3A4-M (Homo sapiens, UniProt P08684); assay: P450 enzyme inhibition, CYP3A4-M (Midazolam); conditions: human liver microsomes
T2 construct: human liver microsomes (BD Gentest) (0.5 mg/mL); tissue BD Gentest; host or cells: human liver microsomes
T2 sequence (P08684 whole entry): as above
Experimental: as §1, §2

CYP2D6 = biological target: T3, CYP2D6 (Homo sapiens, UniProt P10635); assay: P450 enzyme inhibition, CYP2D6; conditions: human liver microsomes
T3 construct: human liver microsomes (BD Gentest) (0.5 mg/mL); tissue BD Gentest; host or cells: human liver microsomes
T3 sequence (P10635 whole entry): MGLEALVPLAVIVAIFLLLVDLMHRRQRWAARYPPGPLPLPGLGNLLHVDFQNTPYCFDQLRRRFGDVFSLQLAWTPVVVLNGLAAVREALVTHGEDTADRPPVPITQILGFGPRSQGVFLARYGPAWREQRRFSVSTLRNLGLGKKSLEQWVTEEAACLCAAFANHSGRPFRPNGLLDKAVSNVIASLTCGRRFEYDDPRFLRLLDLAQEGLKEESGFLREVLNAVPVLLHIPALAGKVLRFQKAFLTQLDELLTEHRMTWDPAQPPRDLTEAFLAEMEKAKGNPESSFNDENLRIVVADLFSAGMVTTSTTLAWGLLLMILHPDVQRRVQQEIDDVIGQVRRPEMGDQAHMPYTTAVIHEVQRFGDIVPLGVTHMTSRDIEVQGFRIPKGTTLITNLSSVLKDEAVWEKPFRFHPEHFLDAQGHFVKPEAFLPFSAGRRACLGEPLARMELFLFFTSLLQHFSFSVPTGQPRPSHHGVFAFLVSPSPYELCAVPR
Experimental: as §1, §2

## COCCOc1ccc2c(c1)ncn2-c1ccc(NC(=O)Nc2cc(C(C)(C)C)n[nH]2)cc1 [Compound 77, 1-(5-tert-butyl-2H-pyrazol-3-yl)-3-{4-[5-(2-methoxyl-ethoxyl)-benzimidazol-1-yl]-phenyl}-urea]
CYP3A4-T; Concentration 0.25 uM
  CYP3A4T Remaining %: 108.5%
CYP3A4-T; Concentration 0.5 uM
  CYP3A4T Remaining %: 108.2%
CYP3A4-T; Concentration 5 uM
  CYP3A4T Remaining %: 104.7%
CYP3A4-T; Concentration 10 uM
  CYP3A4T Remaining %: 112.5%
CYP3A4-T; Concentration 25 uM
  CYP3A4T Remaining %: 109.9%
CYP3A4-T; Concentration 50 uM
  CYP3A4T Remaining %: 101.2%
  inhibitory effect on CYP3A4-T: no significant inhibitory effect
[1]; 2 uM
  elimination rate constant: 0.0031
[1]; rat liver microsomes
  half-life at 2 uM: 3.73 h
[2]
  half-life at 1 uM: > 2 h
CYP3A4-M; Concentration 0.25 uM
  CYP3A4M Remaining %: 105.7%
CYP3A4-M; Concentration 0.5 uM
  CYP3A4M Remaining %: 105.7%
CYP3A4-M; Concentration 5 uM
  CYP3A4M Remaining %: 105.0%
CYP3A4-M; Concentration 10 uM
  CYP3A4M Remaining %: 97.3%
CYP3A4-M; Concentration 25 uM
  CYP3A4M Remaining %: 97.2%
CYP3A4-M; Concentration 50 uM
  CYP3A4M Remaining %: 84.0%
  inhibitory effect on CYP3A4-M: no significant inhibitory effect
CYP2D6; Concentration 0.25 uM
  CYP2D6 Remaining %: 105.1%
CYP2D6; Concentration 0.5 uM
  CYP2D6 Remaining %: 97.7%
CYP2D6; Concentration 5 uM
  CYP2D6 Remaining %: 98.8%
CYP2D6; Concentration 10 uM
  CYP2D6 Remaining %: 96.3%
CYP2D6; Concentration 25 uM
  CYP2D6 Remaining %: 90.3%
CYP2D6; Concentration 50 uM
  CYP2D6 Remaining %: 64.9%
CYP2D6; read-out: half-inhibitory concentration (IC50) of CYP2D6
  IC50: > 50 µM
